Measured values published in patent US20040229268A1, “Method and kit for identifying antibiotic-resistant microorganisms” (priority 2003, published 2004).
Converted amounts (≈) assume the structure as drawn.

Experiments:
Staphylococcus isolates = experiment: Oxacillin Minimum Inhibitory Concentration (Ox MIC); assay type: cell-based, S. aureus and other Staphylococcus spp.
[1] = tested on: mecA gene; Staphylococcus spp. and S. aureus ribosomal nucleic acids; experiment: HPA probe panel on clinical and ATCC isolates (Examples 8-9); assay type: binding
Procedure: Oxacillin MIC results were provided by an outside laboratory. The GP Probe results were determined as described in Example 8.

## Cc1onc(-c2ccccc2)c1C(=O)N[C@@H]1C(=O)N2[C@@H]1SC(C)(C)[C@@H]2C(=O)O [Oxacillin]
Staphylococcus isolates; Staphylococcus, Pos Control GP1217
  MIC: > 16 µg/mL
Staphylococcus isolates; Staphylococcus, Table 14, S. hemoliticus, 1 isolate
  MIC: ≤ 0.25 µg/mL
Staphylococcus isolates; Staphylococcus, Table 14, S. hyicus-hyicus, 1 isolate
  MIC: ≤ 0.25 µg/mL
Staphylococcus isolates; Staphylococcus, Table 14, S. intermedius, 1 isolate
  MIC: ≤ 0.25 µg/mL
Staphylococcus isolates; Staphylococcus, clinical isolate GP21, determined at the collection site
  MIC: < 0.25 µg/mL
Staphylococcus isolates; Staphylococcus, clinical isolate GP22, determined at the collection site
  MIC: 0.5 µg/mL (≈ 1.25 µM)
Staphylococcus isolates; Staphylococcus, clinical isolate GP23, determined at the collection site
  MIC: < 0.25 µg/mL
Staphylococcus isolates; Staphylococcus, clinical isolate GP24, determined at the collection site
  MIC: > 16 µg/mL
Staphylococcus isolates; Staphylococcus, clinical isolate GP25, determined at the collection site
  MIC: > 16 µg/mL
Staphylococcus isolates; Staphylococcus, clinical isolate GP26, determined at the collection site
  MIC: < 0.25 µg/mL
Staphylococcus isolates; Staphylococcus, clinical isolate GP27, determined at the collection site
  MIC: < 0.25 µg/mL
Staphylococcus isolates; Staphylococcus, clinical isolate GP28, determined at the collection site
  MIC: 1 µg/mL (≈ 2.49 µM)
Staphylococcus isolates; Staphylococcus, clinical isolate GP29, determined at the collection site
  MIC: > 16 µg/mL
Staphylococcus isolates; Staphylococcus, clinical isolate GP30, determined at the collection site
  MIC: < 0.25 µg/mL
Staphylococcus isolates; Staphylococcus, clinical isolate GP31, determined at the collection site
  MIC: > 16 µg/mL
Staphylococcus isolates; Staphylococcus, clinical isolate GP32, determined at the collection site
  MIC: < 0.25 µg/mL
Staphylococcus isolates; Staphylococcus, clinical isolate GP33, determined at the collection site
  MIC: > 16 µg/mL
Staphylococcus isolates; Staphylococcus, clinical isolate GP34, determined at the collection site
  MIC: < 0.25 µg/mL
Staphylococcus isolates; Staphylococcus, clinical isolate GP35, determined at the collection site
  MIC: > 16 µg/mL
Staphylococcus isolates; Staphylococcus, clinical isolate GP36, determined at the collection site
  MIC: < 0.25 µg/mL
Staphylococcus isolates; Staphylococcus, clinical isolate GP37, determined at the collection site
  MIC: > 16 µg/mL
Staphylococcus isolates; Staphylococcus, clinical isolate GP39, determined at the collection site
  MIC: < 0.25 µg/mL
Staphylococcus isolates; Staphylococcus, clinical isolate GP40, determined at the collection site
  MIC: < 0.25 µg/mL
Staphylococcus isolates; Table 14, ATCC MRSA, first isolate
  MIC: 8 µg/mL (≈ 19.9 µM)
Staphylococcus isolates; Table 14, ATCC MRSA, second isolate
  MIC: 16 µg/mL (≈ 39.9 µM)
Staphylococcus isolates; Table 14, ATCC MSSA, 1 isolate
  MIC: 1 µg/mL (≈ 2.49 µM)
Staphylococcus isolates; Table 14, ATCC MSSA, group of 4 isolates
  MIC: 0.5 µg/mL (≈ 1.25 µM)
Staphylococcus isolates; Table 14, ATCC MSSA, group of 6 isolates
  MIC: ≤ 0.25 µg/mL
Staphylococcus isolates; Table 14, Clinical MRSA, group of 8 isolates
  MIC: 16 µg/mL (≈ 39.9 µM)
Staphylococcus isolates; Table 14, Clinical MRSA, group of 13 isolates
  MIC: 8 µg/mL (≈ 19.9 µM)
Staphylococcus isolates; Table 14, Clinical MRSA, group of 14 isolates, provided by an outside laboratory
  MIC: 4 µg/mL (≈ 9.96 µM)
Staphylococcus isolates; Table 14, Clinical MRSA, group of 107 isolates
  MIC: > 16 µg/mL
Staphylococcus isolates; Table 14, Clinical MSSA, group of 8 isolates
  MIC: 2 µg/mL (≈ 4.98 µM)
Staphylococcus isolates; Table 14, Clinical MSSA, group of 13 isolates
  MIC: 1 µg/mL (≈ 2.49 µM)
Staphylococcus isolates; Table 14, Clinical MSSA, group of 28 isolates
  MIC: 0.5 µg/mL (≈ 1.25 µM)
Staphylococcus isolates; Table 14, Clinical MSSA, group of 99 isolates
  MIC: ≤ 0.25 µg/mL
Staphylococcus isolates; Table 14, S. epidermidis, 1 isolate (mecA(+)), first
  MIC: 4 µg/mL (≈ 9.96 µM)
Staphylococcus isolates; Table 14, S. epidermidis, 1 isolate (mecA(+)), second
  MIC: > 16 µg/mL
Staphylococcus isolates; Table 14, S. epidermidis, group of 2 isolates (mecA(−))
  MIC: ≤ 0.25 µg/mL
Staphylococcus isolates; Table 14, S. hominis, 1 isolate
  MIC: ≤ 0.25 µg/mL
Staphylococcus isolates; Table 14, S. saprophyticus, 1 isolate
  MIC: 0.5 µg/mL (≈ 1.25 µM)
Staphylococcus isolates; Table 14, S. simulans, 1 isolate
  MIC: ≤ 0.25 µg/mL
Staphylococcus isolates; Table 14, S. warneri, 1 isolate
  MIC: ≤ 0.25 µg/mL
Staphylococcus isolates; specimen 10 (mecA PCR Neg)
  Ox MIC: 8 µg/mL
Staphylococcus isolates; specimen 101 (mecA PCR Neg)
  Ox MIC: 4 µg/mL
Staphylococcus isolates; specimen 102 (mecA PCR Pos)
  Ox MIC: 4 µg/mL
Staphylococcus isolates; specimen 103 (mecA PCR Neg)
  Ox MIC: 4 µg/mL
Staphylococcus isolates; specimen 104 (mecA PCR Neg)
  Ox MIC: 2 µg/mL
Staphylococcus isolates; specimen 105 (mecA PCR Neg)
  Ox MIC: 2 µg/mL
Staphylococcus isolates; specimen 106 (mecA PCR Neg)
  Ox MIC: 2 µg/mL
Staphylococcus isolates; specimen 139 (mecA PCR Pos)
  Ox MIC: 4 µg/mL
Staphylococcus isolates; specimen 140 (mecA PCR Pos)
  Ox MIC: 16 µg/mL
Staphylococcus isolates; specimen 142 (mecA PCR Pos)
  Ox MIC: 4 µg/mL
Staphylococcus isolates; specimen 145 (mecA PCR Neg)
  Ox MIC: 4 µg/mL
Staphylococcus isolates; specimen 148 (mecA PCR Pos)
  Ox MIC: 4 µg/mL
Staphylococcus isolates; specimen 155 (mecA PCR Neg)
  Ox MIC: 4 µg/mL
Staphylococcus isolates; specimen 164 (mecA PCR Neg)
  Ox MIC: 2 µg/mL
Staphylococcus isolates; specimen 178 (mecA PCR Pos)
  Ox MIC: 2 µg/mL
Staphylococcus isolates; specimen 188 (mecA PCR Pos)
  Ox MIC: 2 µg/mL
Staphylococcus isolates; specimen 270 (mecA PCR Pos)
  Ox MIC: <0.25 µg/mL
Staphylococcus isolates; specimen #99 (mecA PCR Pos), reported by outside laboratory
  Ox MIC: 4 µg/mL
Staphylococcus isolates; specimen #100 (mecA PCR Neg), reported by outside laboratory
  Ox MIC: 4 µg/mL

## CCACTCAAGAGAGACAACATTTTCGACTAC (AE label linker 22/23, with helper oligonucleotides, chemistry not fully specified; listed as Staphylococcus aureus) [S. aureus]
[1]; ATCC MRSA, 1 isolate, Oxacillin MIC 16 μg/ml
  HPA Results (# positive for indicated probes): 1
[1]; ATCC MSSA, 1 isolate, Oxacillin MIC 1 μg/ml
  HPA Results (# positive for indicated probes): 1
[1]; ATCC MSSA, 4 isolates, Oxacillin MIC 0.5 μg/ml
  HPA Results (# positive for indicated probes): 4
[1]; ATCC MSSA, 6 isolates, Oxacillin MIC ≦0.25 μg/ml
  HPA Results (# positive for indicated probes): 6
[1]; Clinical MRSA, 8 isolates, Oxacillin MIC 16 μg/ml
  HPA Results (# positive for indicated probes): 8
[1]; Clinical MRSA, 107 isolates, Oxacillin MIC >16 μg/ml
  HPA Results (# positive for indicated probes): 107
[1]; Clinical MSSA, 28 isolates, Oxacillin MIC 0.5 μg/ml
  HPA Results (# positive for indicated probes): 28
[1]; Clinical MSSA, 99 isolates, Oxacillin MIC ≦0.25 μg/ml
  HPA Results (# positive for indicated probes): 99
[1]; GP21 (S. aureus, mecA(−), MSSA)
  HPA Results (RLU): 351348 RLU
[1]; GP22 (CoNS, mecA(+))
  HPA Results (RLU): 7637 RLU
[1]; GP23 (S. aureus, mecA(−))
  HPA Results (RLU): 280428 RLU
[1]; GP24 (S. aureus, mecA(+))
  HPA Results (RLU): 274112 RLU
[1]; GP25 (S. aureus, mecA(+))
  HPA Results (RLU): 408938 RLU
[1]; GP26 (S. aureus, mecA(−))
  HPA Results (RLU): 241597 RLU
[1]; GP27 (CoNS, mecA(−))
  HPA Results (RLU): 7057 RLU
[1]; GP28 (S. aureus, mecA(−))
  HPA Results (RLU): 195759 RLU
[1]; GP29 (S. aureus, mecA(+))
  HPA Results (RLU): 416372 RLU
[1]; GP30 (S. aureus, mecA(−))
  HPA Results (RLU): 399498 RLU
[1]; GP31 (S. aureus, mecA(+))
  HPA Results (RLU): 332750 RLU
[1]; GP32 (S. aureus, mecA(−))
  HPA Results (RLU): 414709 RLU
[1]; GP33 (S. aureus, mecA(+))
  HPA Results (RLU): 154183 RLU
[1]; GP34 (S. aureus, mecA(−))
  HPA Results (RLU): 497890 RLU
[1]; GP35 (S. aureus, mecA(+))
  HPA Results (RLU): 484580 RLU
[1]; GP36 (S. aureus, mecA(−))
  HPA Results (RLU): 356243 RLU
[1]; GP37 (S. aureus, mecA(+))
  HPA Results (RLU): 373448 RLU
[1]; GP38 (S. aureus, mecA(+))
  HPA Results (RLU): 367728 RLU
[1]; GP39 (S. aureus, mecA(−))
  HPA Results (RLU): 268665 RLU
[1]; GP40 (S. aureus, mecA(−))
  HPA Results (RLU): 283200 RLU
[1]; Neg Control (Hybridization Buffer)
  HPA Results (RLU): 3472 RLU
[1]; Pos Control GP1217 (S. aureus, mecA(+), MRSA)
  HPA Results (RLU): 162795 RLU
[1]; S. epidermidis, 1 isolate, Oxacillin MIC >16 μg/ml
  HPA Results (# positive for indicated probes): 0
[1]; S. epidermidis, 2 isolates, Oxacillin MIC ≦0.25 μg/ml
  HPA Results (# positive for indicated probes): 0
[1]; S. hemoliticus, 1 isolate, Oxacillin MIC ≦0.25 μg/ml
  HPA Results (# positive for indicated probes): 0
[1]; S. hominis, 1 isolate, Oxacillin MIC ≦0.25 μg/ml
  HPA Results (# positive for indicated probes): 0
[1]; S. hyicus-hyicus, 1 isolate, Oxacillin MIC ≦0.25 μg/ml
  HPA Results (# positive for indicated probes): 0
[1]; S. intermedius, 1 isolate, Oxacillin MIC ≦0.25 μg/ml
  HPA Results (# positive for indicated probes): 0
[1]; S. saprophyticus, 1 isolate, Oxacillin MIC 0.5 μg/ml
  HPA Results (# positive for indicated probes): 0
[1]; S. simulans, 1 isolate, Oxacillin MIC ≦0.25 μg/ml
  HPA Results (# positive for indicated probes): 0
[1]; S. warneri, 1 isolate, Oxacillin MIC ≦0.25 μg/ml
  HPA Results (# positive for indicated probes): 0
